Legend:
[1] = system: 3T3-L1 adipocytes; experiment: Oil-Red O staining of intracellular fat in differentiated adipocytes; type: cell-based; conditions: differentiated 3T3-L1 adipocytes, 0.01-10 mM, 10 days
Procedure: 3T3-L1 adipocytes were purchased from Korean Cell Line Bank. For the culture and maintenance of 3T3-L1 adipocytes, the cells were subcultured in Dulbecco's modified Eagle's medium (DMEM, Welgene, Korea) supplemented with 10% bovin calf serum (FCS, Welgene, Korea) in a 5% CO2 incubator at 37° C. 3T3-L1 adipocytes were divided into six groups as follows: NT; Normal differentiated cell group (control group), sialyllactose test group; 1, 10, 100, 1000, and 10000 μM test groups treated with sialyllactose (SL, Sigma-Aldrich, USA). For cell differentiation, the cells were dispensed in 6-well plates at a density of 2×10^5 cells per well, and grown to 100% confluency. […]
After differentiation in 6-well plates, 3T3-L1 adipocytes treated with […] or 6’-sialyllactose were washed two times with PBS, and then 2 ml of 10% formalin (Sigma-Aldrich, USA) was added thereto to fix the adipocytes at room temperature for 10 minutes. […] Thereafter, 1 ml of 100% isopropanol (Sigma-Aldrich, USA) was added to effuse stained adipocytes, and then the amount of accumulated fat was measured using absorbance at 500 nm.

[2] = system: high-fat diet mice; experiment: Subcutaneous fat changes of high-fat diet mice by subcutaneous injection; type: in vivo, mouse; conditions: 0.5 ml of 100 mM, subcutaneous injection day 0 and day 4; observed day 4 and 7
Procedure: 4-Week-old C56BL/6 mice were purchased from Dooyeul Biotech (Korea). Water was freely accessible, and a commercially available pellet feed (Dooyeul Biotech, Korea) was given for one week. A high-fact (60% fat) diet purchased from Research Diets (New Brunswick, U.S.A) was supplied for 28 days to construct fat-accumulated mice.
0.5 ml of 100 mM 3′-siallylactose or 6′-siallylactose dissolved in a phosphate buffer was subcutaneously injected two times (day 0 and day 4) into four to five sites of the dorsal region of the mouse having fat accumulation induced by a high-fat diet. On day 4 and 7, the skin was observed by the naked eye and dermoscopy. A phosphate buffer was used as a control group (CTL).

CC(=O)N[C@H]1[C@H]([C@H](O)[C@H](O)CO)O[C@@](OC[C@H]2O[C@@H](O[C@H]3[C@H](O)[C@@H](O)[C@H](O)O[C@@H]3CO)[C@H](O)[C@@H](O)[C@H]2O)(C(=O)O)C[C@@H]1O [6′-SL, α-NeuNAc-(2→6)-β-D-Gal-(1→4)-D-Glc]
intracellular fat (Oil Red O) ([1]; listed as 6′-siallylactose): greatly reduced | intracellular fat (Oil Red O) ([1]; listed as 6′-sialyllactose): significantly reduced intracellular fat | subcutaneous fat (naked eye and dermoscopy) [2]: greatly reduced subcutaneous fat

Reference: patent publication US20190030053A1, “COMPOSITION FOR INCREASING EXPRESSION OF PGC-1alpha” (BENEBIOSIS CO., LTD., priority 2016, published 2019)
